The target in series [1] is T1, FHIT (Homo sapiens, UniProt P49789).
T1 construct: GST (N, cleaved yes); made in house; host or cells: E. coli BL21 (DE3)
The experiment in a line: MST assay, purified Red-NHS labeled FHIT. The format is binding. The protocol:
The gene encoding human FHIT (P49789) was synthesized (Genscript, China) and cloned into pGEX-6P-1 such that the expressed protein would have an N-terminal glutathione S-transferase (GST)-tagged protein. The construct was transformed into expression host E.coli BL21 (DE3), and cells were grown in LB medium at 37 °C until the OD600 reached 0.6. The cells were then induced by adding 0.1 mM isopropyl-β-D-l-thiogalactopyranoside (IPTG) and grown at 18 °C overnight. Cells were harvested by centrifugation. The cell pellet was resuspended in a buffer containing 20 mM Tris (pH 7.5), 500 mM NaCl, and 2 mM DTT and lysed by sonication. After centrifugation, the clarified cell lysate was incubated with glutathione-sepharose 4B beads, and GST-tagged FHIT was eluted with the buffer consisting of 50 mM reduced glutathione. […]
Ten million 293 cells overexpressing GFP-tagged FHIT or free GFP were lysed in 0.5 mL M-PER mammalian protein extraction reagent (Thermo Fisher Scientific). […] The fluorescence signal during the thermophoresis was monitored and the change in fluorescence was analyzed by software. The Kd was calculated by fitting a standard binding curve to the series diluted ligands. And data were analyzed by GraphPad Prism 7.0.

In another series the target is T2, DCPS (Homo sapiens, UniProt Q96C86).
T2 construct: 6xHis (N); made in house; host or cells: E. coli BL21(DE3)
T2 sequence (Q96C86 1-337): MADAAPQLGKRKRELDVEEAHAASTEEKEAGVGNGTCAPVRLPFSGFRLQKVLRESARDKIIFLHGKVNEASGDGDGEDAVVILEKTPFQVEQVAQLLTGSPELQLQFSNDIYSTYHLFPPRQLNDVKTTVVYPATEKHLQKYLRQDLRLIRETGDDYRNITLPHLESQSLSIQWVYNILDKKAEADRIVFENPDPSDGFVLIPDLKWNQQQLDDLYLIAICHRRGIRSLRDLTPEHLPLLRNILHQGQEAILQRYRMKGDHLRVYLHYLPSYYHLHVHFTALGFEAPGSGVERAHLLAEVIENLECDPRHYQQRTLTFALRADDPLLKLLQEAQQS
The experiment in a line: MST assay, purified DCPS. The format is binding.

The subject of another series is HCT116 cells. The experiment in a line: CCK-8 assay for cell inhibitory rate. The format is cell-based, human. As to conditions: WT HCT116 cells, concentration as high as 100 µM. The protocol:
The CCK-8 (Cell-Counting Kit-8) assay was used to detect the cells’inhibitory rate following the manufacturer’s protocol (APExBIO). Cells were seeded into 96-well plates at the density of 4 × 10^3(cells/well) overnight at 37 °C. After that, the culture medium was removed and the cells were treated with different concentrations of TSA (0, 1, 2, 5, 10 µM) or STS (0, 10, 25, 50, 100 µM) for 24 h, 48 h, 72 h respectively. Then 10 μL CCK-8 reagent was added into each well and incubated for another 2 h, OD450 was measured by a microplate reader (spark, TECAN).
On the technique in general: Tetrazolium dyes change colour on reduction, which living cells bring about.

In the next series the target is T3, GALT (Homo sapiens, UniProt P07902).
T3 construct: 6xHis (N); made in house; host or cells: E. coli BL21(DE3)
The experiment in a line: MST assay, purified GALT. The format is binding.

For a further series, the target named is T4, FHIT truncation TR3 (Homo sapiens, UniProt P49789).
T4 construct: expressed in transfected cells; host or cells: HEK293T / 293 cells (inferred from the cellular MST method)
The experiment in a line: Cellular MST assay, GFP tagged FHIT truncation TR3 (C-terminal only). The format is binding. Here is the method:
(§1) Ten million 293 cells overexpressing GFP-tagged FHIT or free GFP were lysed in 0.5 mL M-PER mammalian protein extraction reagent (Thermo Fisher Scientific). Cell lysates were diluted in PBS buffer to a final concentration at which the fluorescent signals of the GFP proteins were suitable for the detection of the Monolith NT.115 instrument (NanoTemper Technologies). A single point screening assay was developed against GFP-FHIT protein to find potential binding molecules from compound libraries (L1021,APExBIO). For binding affinity detection, a 10µL protein sample was mixed with 10µL ligand at various concentrations as indicated. And the purified proteins were labeled by Red- NHS kit in accordance with the manufacturer’s protocol (MO-L011, NanoTemper Technologies). Then the mixture solutions were loaded into NT.115 standard coated capillaries or premium coated capillaries (NanoTemper Technologies), and the MST measurements were performed at 25 °C. The fluorescence signal during the thermophoresis was monitored and the change in fluorescence was analyzed by software. The Kd was calculated by fitting a standard binding curve to the series diluted ligands. And data were analyzed by GraphPad Prism 7.0.

For series [2], the target named is T1, FHIT. The experiment in a line: FHIT hydrolase activity detection assay (Ap3A, ADP-Glo). The format is biochemical. The settings on record: 5 nM FHIT, 500 nM Ap3A, ADP production by ADP-Glo. Here is the method:
5 nM FHIT protein was mixed with series diluted compounds as indicated in assay buffer (20 mM Tris–HCl, 2 mM DTT, 5 mM MgCl2, pH7.5) in a final DMSO concentration of 1% in a total volume of 20 μL. The mixtures were incubated for 30 min at 25 °C, then 500 nM Ap3A was added. After incubation at 25 °C for 5 min, the production of ADP in the reaction system was detected by ADP-Glo reagent (V6930, Promega) according to the manufacturer’s protocol in 384-well. Luminescence was read by spark (TECAN), an integration time of 1 s per well. And the data were analyzed by GraphPad Prism 7.0.
(ADP-Glo first removes unused ATP, then detects ADP through luciferase.)

Series [3] has as its target T1, FHIT. The experiment in a line: Cellular MST assay, HEK293T cell lysate containing GFP tagged FHIT. The series is classed as binding. As to conditions: GFP-FHIT in HEK293T cell lysate, 25 °C. Here is the method:
as §1

The structures appear in SMILES notation.

The term Kd denotes a measure of binding affinity in units of concentration. As usually defined, the IC50 is the midpoint of a concentration-inhibition curve. High values mean weaker potency, low ones greater potency.

T1 sequence (P49789 whole entry): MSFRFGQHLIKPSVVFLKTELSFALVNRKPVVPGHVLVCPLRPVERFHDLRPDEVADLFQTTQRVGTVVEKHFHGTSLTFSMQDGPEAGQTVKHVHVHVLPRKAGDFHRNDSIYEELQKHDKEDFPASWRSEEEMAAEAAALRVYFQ
T3 sequence (P07902 whole entry): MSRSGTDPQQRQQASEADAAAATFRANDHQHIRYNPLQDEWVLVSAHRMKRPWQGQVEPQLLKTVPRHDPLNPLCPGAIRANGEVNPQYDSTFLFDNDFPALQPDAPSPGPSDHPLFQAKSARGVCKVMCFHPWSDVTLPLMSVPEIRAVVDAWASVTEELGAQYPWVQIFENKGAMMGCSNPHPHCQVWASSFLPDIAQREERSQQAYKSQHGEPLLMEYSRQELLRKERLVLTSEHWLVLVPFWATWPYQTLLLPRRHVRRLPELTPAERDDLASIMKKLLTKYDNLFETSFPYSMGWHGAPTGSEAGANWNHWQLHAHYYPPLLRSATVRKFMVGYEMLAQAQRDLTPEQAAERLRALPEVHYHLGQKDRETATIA
T4 sequence (P49789 109-147 limits assumed): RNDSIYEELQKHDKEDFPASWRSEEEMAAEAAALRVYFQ

As to `Cc1c(S(=O)(=O)O)oc2c1C(=O)C(=O)c1c-2ccc2c1CCCC2(C)C` [STS, Sodium tanshinone IIA sulfonate], the dissociation constant Kd at FHIT [1] (FHIT purified from E.coli, Red-NHS labeled, MST) was 1.82 ± 0.3 µM; at DCPS, 9.31 ± 0.4 µM; at GALT, 12.9 ± 0.54 µM; on FHIT truncation TR3 it was “No Kd value was calculated”; at FHIT [3], 0.268 ± 0.0426 µM. In addition, the “binding affinity of purified FHIT, times lower than cellular FHIT” value on FHIT [1] (purified FHIT vs cellular GFP-FHIT) amounted to 5. In the series with HCT116 cells, the “cytotoxicity (CCK8)” value is “no cytotoxicity”. The same compound had an IC50 at FHIT [2] of 0.34 ± 0.09 µM.
